Laboratory results published in the supplement of paper PMC10307832.

What was measured:
Test in all cases: relative viability (nuclei count vs DMSO), 5 days (fraction); higher = more cells survive
[1] = compound: O=c1[nH]c2ccccc2n1C1CCN(CCCC(c2ccc(F)cc2)c2ccc(F)cc2)CC1 [Pimozide]
How it was run: (§1)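 Viability was defined as treated-well nuclei divided by vehicle-well nuclei, with the median taken over replicate plates. Cells from lung cancer lines sat overnight at 37 °C in 1536-well plates, received five √10-spaced library-drug doses by pinning on vehicle-anchored plates, and grew 5 days without medium change before one-step fixation, permeabilisation and Hoechst staining, 4× imaging and MetaXpress nuclear counts. Only plates with control CV under 25% and at least one doubling were kept.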

[2] = compound: CC(=O)O[C@@]12CO[C@@H]1C[C@H](O)[C@@]1(C)C(=O)[C@H](O)C3=C(C)[C@@H](OC(=O)[C@H](O)[C@@H](NC(=O)OC(C)(C)C)c4ccccc4)C[C@@](O)([C@@H](OC(=O)c4ccccc4)[C@H]21)C3(C)C [Docetaxel]
How it was run: as §1

[3] = compound: Cc1cnc(-c2cnc(NCCNc3ccc(C#N)cn3)nc2-c2ccc(Cl)cc2Cl)[nH]1
How it was run: as §1

[4] = compound: Nc1ccn([C@@H]2O[C@H](CO)[C@@H](O)[C@@H]2O)c(=O)n1 [Cytarabine]
How it was run: as §1

[5] = compound: O=C(O)CCCCC(CCSCc1ccccc1)SCc1ccccc1 [CPI-613]
How it was run: as §1

[6] = compound: Cc1sc2c(c1C)C(c1ccc(Cl)cc1)=N[C@@H](CC(=O)OC(C)(C)C)c1nnc(C)n1-2 [JQ1]
How it was run: as §1

[7] = compound: COc1cc2nccc(Oc3ccc(NC(=O)Nc4cc(C)on4)c(Cl)c3)c2cc1OC [Tivozanib]
How it was run: as §1

Row | Cell Line | relative viability ([1]; 0.08 µM) | relative viability ([1]; 0.253 µM) | relative viability ([1]; 0.8 µM) | relative viability ([1]; 2.53 µM) | relative viability ([1]; 8 µM) | relative viability ([2]; 0.0002 µM) | relative viability ([2]; 0.000632 µM) | relative viability ([2]; 0.002 µM) | relative viability ([2]; 0.006325 µM) | relative viability ([2]; 0.02 µM) | relative viability ([3]; 0.08 µM) | relative viability ([3]; 0.253 µM) | relative viability ([3]; 0.8 µM) | relative viability ([3]; 2.53 µM) | relative viability ([4]; 0.005 µM) | relative viability ([4]; 0.01581 µM) | relative viability ([4]; 0.05 µM) | relative viability ([4]; 0.1581 µM) | relative viability ([4]; 0.5 µM) | relative viability ([5]; 5 µM) | relative viability ([5]; 15.81 µM) | relative viability ([5]; 50 µM) | relative viability ([5]; 158.11 µM) | relative viability ([5]; 500 µM) | relative viability ([6]; 0.04 µM) | relative viability ([6]; 0.1265 µM) | relative viability ([6]; 0.4 µM) | relative viability ([6]; 1.265 µM) | relative viability ([6]; 4 µM) | relative viability ([7]; 0.005 µM) | relative viability ([7]; 0.01581 µM) | relative viability ([7]; 0.05 µM) | relative viability ([7]; 0.1581 µM) | relative viability ([7]; 0.5 µM)
1 | ChaGo-K-1 | 1.08 | 0.95 | 0.975 | 0.96 | 0.961 | 1 | 0.691 | 0.636 | 0.349 | 0.196 | 0.987 | 0.854 | 1.02 | 0.939 | 0.687 | 0.681 | 0.509 | 0.383 | 0.283 | 0.918 | 0.981 | 0.975 | 0.705 | 0.411 | 0.93 | 0.845 | 0.956 | 0.901 | 0.743 | 0.979 | 0.956 | 0.97 | 0.909 | 0.921
2 | EBC-1 | 0.996 | 0.94 | 0.899 | 0.901 | 0.942 | 0.89 | 0.693 | 0.241 | 0.25 | 0.152 | 0.982 | 0.914 | 0.975 | 0.987 | 0.817 | 0.816 | 0.623 | 0.478 | 0.336 | 0.962 | 0.823 | 0.828 | 0.661 | 0.556 | 0.922 | 0.596 | 0.372 | 0.138 | 0.141 | 0.951 | 0.96 | 0.979 | 0.929 | 0.918
3 | EKVX | – | 0.906 | 0.923 | 0.978 | 0.984 | 0.97 | 0.874 | 0.462 | 0.262 | 0.176 | 1 | 0.824 | 0.975 | 0.835 | 1.02 | 0.913 | 0.694 | 0.364 | 0.362 | 0.935 | 0.959 | 0.932 | 0.628 | 0.935 | 0.997 | 0.781 | 0.939 | 0.827 | 0.769 | 0.908 | 0.989 | 1.09 | 0.939 | 0.971
4 | EMC-BAC-2 | 0.969 | 0.933 | 0.884 | 0.933 | 0.955 | 0.905 | 0.736 | 0.483 | 0.304 | 0.268 | 1.02 | 0.96 | 0.923 | 0.897 | 1.04 | 0.866 | 0.492 | 0.349 | 0.257 | 0.973 | 0.875 | 0.982 | 0.782 | 0.189 | 0.922 | 0.667 | 0.842 | 0.519 | 0.48 | 0.935 | 1.06 | 1 | 0.752 | 0.792
5 | EPLC-272H | 0.852 | 0.896 | 0.842 | 0.7 | 0.61 | 0.878 | 0.533 | 0.244 | 0.104 | 0.071 | 1.02 | 0.836 | 0.937 | 0.962 | 0.768 | 0.572 | 0.487 | 0.331 | 0.173 | 0.9 | 0.834 | 0.839 | 0.783 | 0.449 | 0.801 | 0.797 | 0.789 | 0.433 | 0.289 | 0.908 | 0.885 | 0.947 | 0.731 | 0.635
6 | H3255 | – | 0.913 | 0.907 | 0.907 | 0.948 | 0.899 | 0.978 | 0.657 | 0.336 | 0.3 | 1.02 | 0.887 | 0.994 | 0.999 | 0.96 | 0.922 | 0.763 | 0.695 | 0.591 | 0.94 | 0.803 | 0.984 | 0.92 | 0.888 | 0.874 | 0.665 | 0.912 | 0.456 | 0.336 | 0.922 | 0.985 | 0.882 | 0.828 | 0.926
7 | HARA | 0.812 | 0.995 | 0.876 | 0.952 | 0.908 | 0.796 | 0.46 | 0.197 | 0.188 | 0.0932 | 1.01 | 0.737 | 0.859 | 0.833 | 0.788 | 0.716 | 0.397 | 0.24 | 0.221 | 0.909 | 0.862 | 0.984 | 0.6 | 0.0433 | 0.867 | 0.569 | 0.533 | 0.322 | 0.288 | 0.928 | 0.963 | 0.995 | 0.937 | 0.976
8 | HCC-15 | 1.05 | 0.965 | 0.725 | 0.961 | 0.9 | 0.8 | 0.536 | 0.229 | 0.257 | 0.149 | 1.06 | 0.686 | 0.953 | 0.892 | 1.07 | 0.988 | 0.966 | 0.828 | 0.547 | 0.96 | 0.914 | 0.908 | 0.465 | 0.264 | 0.97 | – | 0.859 | 0.656 | 0.6 | 0.962 | 0.922 | 0.949 | 1.07 | 0.89
9 | HCC-44 | 0.986 | 0.95 | 0.876 | 0.911 | 0.952 | 0.956 | 0.949 | 0.587 | 0.296 | 0.198 | 0.986 | 0.867 | 1.07 | 1.08 | 0.989 | 0.882 | 0.643 | 0.614 | 0.356 | 1.01 | 0.958 | 1.03 | 0.869 | 0.51 | 0.977 | 0.776 | 0.778 | 0.438 | 0.308 | 0.936 | 0.949 | 0.976 | 1.02 | 0.87
10 | HCC-78 | 0.859 | – | 0.828 | 0.837 | 0.932 | 0.91 | 0.784 | 0.48 | 0.482 | 0.382 | 0.999 | 0.807 | 0.936 | 0.928 | 1.09 | 0.844 | 0.593 | 0.444 | 0.339 | 0.875 | 0.835 | 0.994 | 0.921 | 0.839 | 0.936 | 0.853 | 0.843 | 0.601 | 0.434 | 0.85 | 0.942 | 0.955 | 0.732 | 0.757
